Data reported in PubChem BioAssay AID342 (DTP/NCI, 2004).
“And” between values parts separate entries of the source, which are not always exact repeats. Equal entries are not always repeated.

Test system: Swiss mice, Sarcoma 180 sc, mean tumor weight T/C
Assay: NCI In Vivo Anticancer Drug Screen. Data for tumor model Sarcoma 180 (subcutaneous) in Swiss mice
Conditions: endpoint: mean tumor weight, higher = larger tumour
Procedure, shortened: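 T/C ratio: treated over vehicle-treated controls, measuring survival or tumor size in transplanted-tumor mice.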

[1] = dose: 1.0 mg/kg/injection, schedule: Q01DX007 (ip), vehicle: carboxymethylcellulose (CMC)
[2] = dose: 2.0 mg/kg/injection, schedule: Q01DX007 (ip), vehicle: carboxymethylcellulose (CMC)
[3] = dose: 8.0 mg/kg/injection, schedule: Q01DX007 (ip), vehicle: carboxymethylcellulose (CMC)
[4] = dose: 1.0 mg/kg/injection, schedule: Q#A X014 (ip), vehicle: methylcellulose (MC)
[5] = dose: 1.5 mg/kg/injection, schedule: Q#A X014 (ip), vehicle: methylcellulose (MC)

CC(C)=C(Br)CC[C@@H](C)[C@H]1CC[C@@]2(C)C3=C(CC[C@]12C)[C@@]1(C)CC[C@H](O)C(C)(C)[C@@H]1CC3
T/C (dose: 62.0 mg/kg/injection, schedule: Q01DX007 (sc), vehicle: steriod suspending solution): 109 % of control | T/C (dose: 125.0 mg/kg/injection, schedule: Q01DX007 (sc), vehicle: steriod suspending solution): 97 % of control | T/C (dose: 500.0 mg/kg/injection, schedule: Q01DX007 (sc), vehicle: steriod suspending solution): 183 % of control

O=C(Nc1ccc(C2=NCCCN2)cc1)c1ccc(C(=O)Nc2ccc(C3=NCCCN3)cc2)cc1
T/C (dose: 0.2 mg/kg/injection, schedule: Q01DX007 (ip), vehicle: water): 83 % of control | T/C (dose: 0.4 mg/kg/injection, schedule: Q01DX007 (ip), vehicle: water): 106 % of control | T/C (dose: 0.8 mg/kg/injection, schedule: Q01DX007 (ip), vehicle: water): 88 % of control | T/C [1]: 80 % of control | T/C (dose: 1.6 mg/kg/injection, schedule: Q01DX007 (ip), vehicle: water): 90 % of control | T/C [2]: 93 % of control | T/C [3]: 104 % of control | T/C (dose: 16.0 mg/kg/injection, schedule: Q01DX007 (ip), vehicle: carboxymethylcellulose (CMC)): 25 % of control | T/C (dose: 32.0 mg/kg/injection, schedule: Q01DX007 (ip), vehicle: carboxymethylcellulose (CMC)): 14 % of control

CC(=O)Nc1cc2c(cc1Br)-c1ccc(F)cc1C2
T/C (dose: 222.0 mg/kg/injection, schedule: Q01DX007 (ip), vehicle: other): 56 % of control | T/C (dose: 333.0 mg/kg/injection, schedule: Q01DX007 (ip), vehicle: other): 44 % of control | T/C (dose: 500.0 mg/kg/injection, schedule: Q01DX007 (ip), vehicle: other): 22 % of control

CN(Cc1cnc2nc(N)nc(N)c2n1)c1ccc(C(=O)N[C@@H](CCC(=O)O)C(=O)O)cc1
T/C (dose: 0.12 mg/kg/injection, schedule: Q01DX007 (ip), vehicle: water): 101 % of control | T/C (dose: 0.12 mg/kg/injection, schedule: Q#A X014 (ip), vehicle: carboxymethylcellulose (CMC)): 123 % of control | T/C (dose: 0.25 mg/kg/injection, schedule: Q01DX007 (ip), vehicle: water): 57 % of control | T/C (dose: 0.25 mg/kg/injection, schedule: Q#A X014 (ip), vehicle: carboxymethylcellulose (CMC)): 121 % of control | T/C (dose: 0.5 mg/kg/injection, schedule: Q01DX007 (ip), vehicle: carboxymethylcellulose (CMC)): 95 % of control and 110 % of control | T/C (dose: 0.5 mg/kg/injection, schedule: Q#A X014 (ip), vehicle: carboxymethylcellulose (CMC)): 73 % of control | T/C (dose: 0.76 mg/kg/injection, schedule: Q01DX007 (ip), vehicle: carboxymethylcellulose (CMC)): 119 % of control | T/C [1]: 107 % of control | T/C (dose: 1.26 mg/kg/injection, schedule: Q01DX007 (ip), vehicle: carboxymethylcellulose (CMC)): 68 % of control | T/C (dose: 1.5 mg/kg/injection, schedule: Q01DX007 (ip), vehicle: carboxymethylcellulose (CMC)): 78 % of control and 86 % of control | T/C (dose: 1.9 mg/kg/injection, schedule: Q01DX007 (ip), vehicle: carboxymethylcellulose (CMC)): 68 % of control | T/C (dose: 237.0 micrograms/kg/injection, schedule: Q01DX007 (ip), vehicle: carboxymethylcellulose (CMC)): 105 % of control | T/C (dose: 475.0 micrograms/kg/injection, schedule: Q01DX007 (ip), vehicle: carboxymethylcellulose (CMC)): 104 % of control | T/C (dose: 950.0 micrograms/kg/injection, schedule: Q01DX007 (ip), vehicle: carboxymethylcellulose (CMC)): 83 % of control | T/C (dose: 1900.0 micrograms/kg/injection, schedule: Q01DX007 (ip), vehicle: carboxymethylcellulose (CMC)): 32 % of control

N#[N+]c1cnc([O-])[nH]c1=O
T/C [1]: 103 % of control | T/C [2]: 102 % of control | T/C (dose: 4.0 mg/kg/injection, schedule: Q01DX007 (ip), vehicle: carboxymethylcellulose (CMC)): 105 % of control | T/C [3]: 95 % of control

Nc1nc(Cc2ccccc2)cc(=O)[nH]1
T/C (dose: 62.5 mg/kg/injection, schedule: Q01DX007 (ip), vehicle: water): 88 % of control | T/C (dose: 125.0 mg/kg/injection, schedule: Q01DX007 (ip), vehicle: water): 78 % of control | T/C (dose: 250.0 mg/kg/injection, schedule: Q01DX007 (ip), vehicle: water): 67 % of control

Cc1ccc(NC(C(=O)c2ccccc2)c2ccccc2)cc1 (stereo not given)
T/C (dose: 150.0 mg/kg/injection, schedule: Q01DX007 (ip), vehicle: saline): 39 % of control | T/C (dose: 225.0 mg/kg/injection, schedule: Q01DX007 (ip), vehicle: saline): 20 % of control

NC(=O)CCC(NC(=O)c1ccc([N+](=O)[O-])cc1)C(=O)O (stereo not given)
T/C (dose: 62.5 mg/kg/injection, schedule: Q01DX007 (ip), vehicle: other): 69 % of control | T/C (dose: 125.0 mg/kg/injection, schedule: Q01DX007 (ip), vehicle: other): 50 % of control | T/C (dose: 250.0 mg/kg/injection, schedule: Q01DX007 (ip), vehicle: other): 63 % of control

CC(C)CC(C#N)C(N)=O (stereo not given)
T/C (dose: 7.5 mg/kg/injection, schedule: Q01DX007 (ip), vehicle: methylcellulose (MC)): 108 % of control | T/C (dose: 30.0 mg/kg/injection, schedule: Q01DX007 (ip), vehicle: methylcellulose (MC)): 96 % of control

CCN(CC)P(=O)(N1CC1)N1CC1
T/C [4]: 64 % of control | T/C (dose: 1.0 mg/kg/injection, schedule: Q#A X014 (ip), vehicle: saline): 90 % of control and 92 % of control | T/C [5]: 60 % of control | T/C (dose: 2.0 mg/kg/injection, schedule: Q#A X014 (ip), vehicle: methylcellulose (MC)): 82 % of control | T/C (dose: 3.0 mg/kg/injection, schedule: Q#A X014 (ip), vehicle: saline): 19 % of control and 38 % of control | T/C (dose: 4.0 mg/kg/injection, schedule: Q01DX007 (ip), vehicle: saline): 48 % of control

[Cl][Pt+2]([Cl])([Cl])[Cl].[Na+].[S-]c1ncnc2nc[nH]c12.[S-]c1ncnc2nc[nH]c12
T/C (dose: 1.1 mg/kg/injection, schedule: Q01DX007 (ip), vehicle: carboxymethylcellulose (CMC)): 92 % of control | T/C (dose: 10.0 mg/kg/injection, schedule: Q01DX007 (ip), vehicle: carboxymethylcellulose (CMC)): 45 % of control | T/C (dose: 19.0 mg/kg/injection, schedule: Q01DX007 (ip), vehicle: carboxymethylcellulose (CMC)): 74 % of control | T/C (dose: 20.0 mg/kg/injection, schedule: Q01DX007 (ip), vehicle: carboxymethylcellulose (CMC)): 40 % of control | T/C (dose: 22.0 mg/kg/injection, schedule: Q#A X014 (ip), vehicle: methylcellulose (MC)): 47 % of control and 50 % of control | T/C (dose: 22.2 mg/kg/injection, schedule: Q#A X014 (ip), vehicle: carboxymethylcellulose (CMC)): 29 % of control | T/C (dose: 29.0 mg/kg/injection, schedule: Q01DX007 (ip), vehicle: carboxymethylcellulose (CMC)): 43 % of control | T/C (dose: 30.0 mg/kg/injection, schedule: Q01DX007 (ip), vehicle: carboxymethylcellulose (CMC)): 54 % of control | T/C (dose: 33.3 mg/kg/injection, schedule: Q#A X014 (ip), vehicle: carboxymethylcellulose (CMC)): 24 % of control | T/C (dose: 44.0 mg/kg/injection, schedule: Q01DX007 (ip), vehicle: carboxymethylcellulose (CMC)): 38 % of control and 41 % of control | T/C (dose: 50.0 mg/kg/injection, schedule: Q#A X014 (ip), vehicle: carboxymethylcellulose (CMC)): 10 % of control | T/C (dose: 50.0 mg/kg/injection, schedule: Q#A X014 (ip), vehicle: methylcellulose (MC)): 24 % of control and 44 % of control | T/C (dose: 65.0 mg/kg/injection, schedule: Q01DX007 (ip), vehicle: carboxymethylcellulose (CMC)): 28 % of control | T/C (dose: 66.0 mg/kg/injection, schedule: Q01DX007 (ip), vehicle: carboxymethylcellulose (CMC)): 57 % of control | T/C (dose: 75.0 mg/kg/injection, schedule: Q#A X014 (ip), vehicle: carboxymethylcellulose (CMC)): 7 % of control | T/C (dose: 75.0 mg/kg/injection, schedule: Q#A X014 (ip), vehicle: methylcellulose (MC)): 16 % of control and 34 % of control | T/C (dose: 220.0 mg/kg/injection, schedule: Q01DX007 (ip), vehicle: carboxymethylcellulose (CMC)): 11 % of control | T/C (dose: 300.0 mg/kg/injection, schedule: Q01DX007 (ip), vehicle: carboxymethylcellulose (CMC)): 1 % of control

CC(C)([NH-])CO.CC(C)([NH-])CO.[Cl][Cd][Cl]
T/C [4]: 50 % of control | T/C (dose: 1.0 mg/kg/injection, schedule: Q#A X014 (ip), vehicle: other): 91 % of control | T/C [5]: 113 % of control | T/C (dose: 1.5 mg/kg/injection, schedule: Q#A X014 (ip), vehicle: other): 104 % of control | T/C (dose: 1.75 mg/kg/injection, schedule: Q#A X014 (ip), vehicle: methylcellulose (MC)): 70 % of control | T/C (dose: 2.5 mg/kg/injection, schedule: Q#A X014 (ip), vehicle: methylcellulose (MC)): 85 % of control | T/C (dose: 2.5 mg/kg/injection, schedule: Q#A X014 (ip), vehicle: other): 85 % of control | T/C (dose: 2.65 mg/kg/injection, schedule: Q#A X014 (ip), vehicle: methylcellulose (MC)): 73 % of control | T/C (dose: 3.75 mg/kg/injection, schedule: Q#A X014 (ip), vehicle: methylcellulose (MC)): 73 % of control | T/C (dose: 3.75 mg/kg/injection, schedule: Q#A X014 (ip), vehicle: other): 102 % of control | T/C (dose: 4.0 mg/kg/injection, schedule: Q#A X014 (ip), vehicle: methylcellulose (MC)): 49 % of control | T/C (dose: 6.0 mg/kg/injection, schedule: Q#A X014 (ip), vehicle: methylcellulose (MC)): 36 % of control
